System: neuromuscular block, induced by the muscle relaxant rocuronium bromide (Roc)
Experiment: Reversal of neuromuscular blockade in anaesthetized guinea pigs in vivo
Details: for concentration at maximum reversal (at conc.) / % max reversal: anaesthetized guinea pigs, rocuronium bromide steady-state block; for concentration at maximum reversal (at conc.): dose of reversal agent at which % max reversal was seen; for % max reversal: maximum reversal; for ED50: dose producing 50% reversal of steady-state neuromuscular block: anaesthetized male Dunkin-Hartley guinea pigs, steady-state block of 85-90% by continuous rocuronium bromide infusion, reversal agent given by jugular vein catheter, M. gastrocnemius contractions
Procedure: Reversal of Neuromuscular Blockade in Anaesthetized Guinea Pigs in vivo
Male Dunkin-Hartley guinea pigs (bodyweight: 600-900 g) were anaesthetized by i.p. administration of 10 mg/kg pentobarbitone and 1000 mg/kg urethane. After tracheotomy, the animals were artificially ventilated using a Harvard small animal ventilator. A catheter was placed into the carotid artery for continuous monitoring of arterial blood pressure and the taking of blood samples for blood gas analysis. Heart rate was derived from the blood pressure signal. The sciatic nerve was stimulated (rectangular pulses of 0.5 ms duration at 10 s (0.1 Hz) intervals at a supramaximal voltage, using a Grass S88 Stimulator) and the force of M. gastrocnemius contractions was measured using a Grass FT03 force-displacement transducer. Contractions, blood pressure and heart rate were recorded on a multichannel Grass 7D recorder. Catheters were placed in both jugular veins. One catheter was used for the continuous infusion of a neuromuscular blocking agent. The infusion rate of the neuromuscular blocking agent was increased until a steady-state block of 85-90% was obtained. The other catheter was used for administration of increasing doses of the reversal agent. During continuous infusion of the neuromuscular blocking agent, single doses of increasing concentration of reversal agent were given. At the end of the experiment, the measured force of muscle contractions was plotted against the concentration of reversal agent, and using regression analysis techniques, the 50% reversal concentration was calculated. Results for the reversal of the neuromuscular block, induced by the muscle relaxant rocuronium bromide (Roc), by the 6-mercapto-cyclodextrin derivatives of Examples 1-19 are presented in Table I. For comparison, the reversal activity of the parent compounds β-cyclodextrin and γ-cyclodextrin are included as well.

SMILES: O=C([O-])Cc1ccc(SC[C@H]2O[C@@H]3O[C@H]4[C@H](O)[C@@H](O)[C@@H](O[C@H]5[C@H](O)[C@@H](O)[C@@H](O[C@H]6[C@H](O)[C@@H](O)[C@@H](O[C@H]7[C@H](O)[C@@H](O)[C@@H](O[C@H]8[C@H](O)[C@@H](O)[C@@H](O[C@H]9[C@H](O)[C@@H](O)[C@@H](O[C@H]%10[C@H](O)[C@@H](O)[C@@H](O[C@H]2[C@H](O)[C@H]3O)O[C@@H]%10CSc2ccc(CC(=O)[O-])cc2)O[C@@H]9CSc2ccc(CC(=O)[O-])cc2)O[C@@H]8CSc2ccc(CC(=O)[O-])cc2)O[C@@H]7CSc2ccc(CC(=O)[O-])cc2)O[C@@H]6CSc2ccc(CC(=O)[O-])cc2)O[C@@H]5CSc2ccc(CC(=O)[O-])cc2)O[C@@H]4CSc2ccc(CC(=O)[O-])cc2)cc1.[Na+].[Na+].[Na+].[Na+].[Na+].[Na+].[Na+].[Na+] [example 9, 6-Per-deoxy-6-per-(4-carboxymethylphenyl)thio-γ-cyclodextrin, Sodium Salt]
- concentration at maximum reversal (at conc.): (0.50) μmol · kg^−1
- % max reversal: 100%
- ED50: dose producing 50% reversal of steady-state neuromuscular block: 0.13 µmol/kg

SMILES: OC[C@H]1O[C@@H]2O[C@H]3[C@H](O)[C@@H](O)[C@@H](O[C@H]4[C@H](O)[C@@H](O)[C@@H](O[C@H]5[C@H](O)[C@@H](O)[C@@H](O[C@H]6[C@H](O)[C@@H](O)[C@@H](O[C@H]7[C@H](O)[C@@H](O)[C@@H](O[C@H]8[C@H](O)[C@@H](O)[C@@H](O[C@H]1[C@H](O)[C@H]2O)O[C@@H]8CO)O[C@@H]7CO)O[C@@H]6CO)O[C@@H]5CO)O[C@@H]4CO)O[C@@H]3CO [β-cyclodextrin, reference compound]
- concentration at maximum reversal (at conc.): (113) μmol · kg^−1
- % max reversal: 93%
- ED50: dose producing 50% reversal of steady-state neuromuscular block: 20 µmol/kg

SMILES: OCC(CO)(CO)CSCC1OC2OC3C(CSCC(CO)(CO)CO)OC(OC4C(CSCC(CO)(CO)CO)OC(OC5C(CSCC(CO)(CO)CO)OC(OC6C(CSCC(CO)(CO)CO)OC(OC7C(CSCC(CO)(CO)CO)OC(OC8C(CSCC(CO)(CO)CO)OC(OC9C(CSCC(CO)(CO)CO)OC(OC1C(O)C2O)C(O)C9O)C(O)C8O)C(O)C7O)C(O)C6O)C(O)C5O)C(O)C4O)C(O)C3O (stereo not drawn) [example 18, 6-Per-deoxy-6-per(2,2-di(hydroxymethyl)-3-hydroxy-propyl)thio-γ-cyclodextin]
- concentration at maximum reversal (at conc.): (4.9) μmol · kg^−1
- % max reversal: 63%
- ED50: dose producing 50% reversal of steady-state neuromuscular block: 2.9 µmol/kg

SMILES: O=C([O-])CCCSC[C@H]1O[C@@H]2O[C@H]3[C@H](O)[C@@H](O)[C@@H](O[C@H]4[C@H](O)[C@@H](O)[C@@H](O[C@H]5[C@H](O)[C@@H](O)[C@@H](O[C@H]6[C@H](O)[C@@H](O)[C@@H](O[C@H]7[C@H](O)[C@@H](O)[C@@H](O[C@H]8[C@H](O)[C@@H](O)[C@@H](O[C@H]9[C@H](O)[C@@H](O)[C@@H](O[C@H]1[C@H](O)[C@H]2O)O[C@@H]9CSCCCC(=O)[O-])O[C@@H]8CSCCCC(=O)[O-])O[C@@H]7CSCCCC(=O)[O-])O[C@@H]6CSCCCC(=O)[O-])O[C@@H]5CSCCCC(=O)[O-])O[C@@H]4CSCCCC(=O)[O-])O[C@@H]3CSCCCC(=O)[O-].[Na+].[Na+].[Na+].[Na+].[Na+].[Na+].[Na+].[Na+] [example 6, 6-Per-deoxy-6-per-(3carboxypropyl)thio-γ-cyclodextrin, Sodium Salt]
- concentration at maximum reversal (at conc.): (0.48) μmol · kg^−1
- % max reversal: 108%
- ED50: dose producing 50% reversal of steady-state neuromuscular block: 0.09 µmol/kg

SMILES: O=S(=O)([O-])CCSCC1OC2OC3C(CSCCS(=O)(=O)[O-])OC(OC4C(CSCCS(=O)(=O)[O-])OC(OC5C(CSCCS(=O)(=O)[O-])OC(OC6C(CSCCS(=O)(=O)[O-])OC(OC7C(CSCCS(=O)(=O)[O-])OC(OC8C(CSCCS(=O)(=O)[O-])OC(OC9C(CSCCS(=O)(=O)[O-])OC(OC1C(O)C2O)C(O)C9O)C(O)C8O)C(O)C7O)C(O)C6O)C(O)C5O)C(O)C4O)C(O)C3O.[Na+].[Na+].[Na+].[Na+].[Na+].[Na+].[Na+].[Na+] (stereo not drawn) [example 17, 6-Per-deoxy-6-per(2-sulfoethyl)thio-γ-cyclodextrin, Sodium Salt]
- concentration at maximum reversal (at conc.): (1.7) μmol · kg^−1
- % max reversal: 106%
- ED50: dose producing 50% reversal of steady-state neuromuscular block: 0.055 µmol/kg

SMILES: OC[C@H]1O[C@@H]2O[C@H]3[C@H](O)[C@@H](O)[C@@H](O[C@H]4[C@H](O)[C@@H](O)[C@@H](O[C@H]5[C@H](O)[C@@H](O)[C@@H](O[C@H]6[C@H](O)[C@@H](O)[C@@H](O[C@H]7[C@H](O)[C@@H](O)[C@@H](O[C@H]8[C@H](O)[C@@H](O)[C@@H](O[C@H]9[C@H](O)[C@@H](O)[C@@H](O[C@H]1[C@H](O)[C@H]2O)O[C@@H]9CO)O[C@@H]8CO)O[C@@H]7CO)O[C@@H]6CO)O[C@@H]5CO)O[C@@H]4CO)O[C@@H]3CO [γ-cyclodextrin, reference compound]
- concentration at maximum reversal (at conc.): (47) μmol · kg^−1
- % max reversal: 104%
- ED50: dose producing 50% reversal of steady-state neuromuscular block: 4 µmol/kg

SMILES: O=C([O-])CSC[C@H]1O[C@@H]2O[C@H]3[C@H](O)[C@@H](O)[C@@H](O[C@H]4[C@H](O)[C@@H](O)[C@@H](O[C@H]5[C@H](O)[C@@H](O)[C@@H](O[C@H]6[C@H](O)[C@@H](O)[C@@H](O[C@H]7[C@H](O)[C@@H](O)[C@@H](O[C@H]8[C@H](O)[C@@H](O)[C@@H](O[C@H]9[C@H](O)[C@@H](O)[C@@H](O[C@H]1[C@H](O)[C@H]2O)O[C@@H]9CSCC(=O)[O-])O[C@@H]8CSCC(=O)[O-])O[C@@H]7CSCC(=O)[O-])O[C@@H]6CSCC(=O)[O-])O[C@@H]5CSCC(=O)[O-])O[C@@H]4CSCC(=O)[O-])O[C@@H]3CSCC(=O)[O-].[Na+].[Na+].[Na+].[Na+].[Na+].[Na+].[Na+].[Na+] [example 7, 6-Per-deoxy-6-per-carboxymethylthio-γ-cyclodextrin, Sodium Salt]
- concentration at maximum reversal (at conc.): (1.92) μmol · kg^−1
- % max reversal: 88%
- ED50: dose producing 50% reversal of steady-state neuromuscular block: 0.21 µmol/kg

SMILES: O=C([O-])CCCCCSC[C@H]1O[C@@H]2O[C@H]3[C@H](O)[C@@H](O)[C@@H](O[C@H]4[C@H](O)[C@@H](O)[C@@H](O[C@H]5[C@H](O)[C@@H](O)[C@@H](O[C@H]6[C@H](O)[C@@H](O)[C@@H](O[C@H]7[C@H](O)[C@@H](O)[C@@H](O[C@H]8[C@H](O)[C@@H](O)[C@@H](O[C@H]9[C@H](O)[C@@H](O)[C@@H](O[C@H]1[C@H](O)[C@H]2O)O[C@@H]9CSCCCCCC(=O)[O-])O[C@@H]8CSCCCCCC(=O)[O-])O[C@@H]7CSCCCCCC(=O)[O-])O[C@@H]6CSCCCCCC(=O)[O-])O[C@@H]5CSCCCCCC(=O)[O-])O[C@@H]4CSCCCCCC(=O)[O-])O[C@@H]3CSCCCCCC(=O)[O-].[Na+].[Na+].[Na+].[Na+].[Na+].[Na+].[Na+].[Na+] [example 5, 6-Per-deoxy-6-per-(5-carboxypentyl)thio-γ-cyclodextrin, Sodium Salt]
- concentration at maximum reversal (at conc.): (2.5) μmol · kg^−1
- % max reversal: 78%
- ED50: dose producing 50% reversal of steady-state neuromuscular block: 0.74 µmol/kg
